Where two headings read alike, the source gives them in different places.
Legend:
human CB2 [1] = biological target: T1, human CB2 (Homo sapiens, UniProt P34972); test: Tango β-arrestin recruitment antagonist assay at CB2; type: cell-based; set-up: expressed in transfected cells; host or cells: HTLA cells; conditions: Tango antagonist assay with 100 nM CP55940; n=4 independent assays, 16 dose-response points; read-out: CB2 Antagonist potency Ki
Protocol: (§1) The Tango arrestin recruitment assays were performed as previously described. Briefly, HTLA cells were transiently transfected with human CB1 or CB2 Tango DNA construct overnight in DMEM supplemented with 10% FBS, 100 μg/ml streptomycin and 100 U/ml penicillin. The transfected cells were then plated into Poly-L-Lysine coated 384-well white clear bottom cell culture plates in DMEM containing 1% dialyzed FBS at a density of 10,000-15,000 cells/well. After 6 hours incubation, the plates were added with drug solutions prepared in DMEM containing 1% dialyzed FBS for overnight incubation. […] On the day of assay, medium and drug solutions were removed and 20 μL/well of BrightGlo reagent (Promega) was added. The plates were further incubated for 20 min at room temperature and counted using a Wallac TriLux Microbeta counter (PerkinElmer). Results were analyzed using GraphPad Prism 8.

human CB2 [2] = biological target: T1, human CB2; test: Radioligand binding assay with [3H]CP-55,940, HEK293 cells expressing hCB2; set-up: expressed in transfected cells; host or cells: HEK293 cells
Protocol: (§2) The affinities (IQ of the new compounds for rat CB1 receptor as well as for human CB2 receptors were obtained by using membrane preparations from rat brain or HEK293 cells expressing hCB2 receptors, respectively, and [^3H]CP-55,940 as the radioligand, as previously described. Results from the competition assays were analyzed using nonlinear regression to determine the IC50 values for the ligand; Ki values were calculated from the I50 (Prism by GraphPad Software, Inc.). Each experiment was performed in triplicate and Ki values determined from three independent experiments and are expressed as the mean of the three values.

human CB1 = biological target: T2, human CB1 (Homo sapiens, UniProt P21554); type: cell-based; conditions: read-out: CB1 Antagonist potency Ki
T2 construct: expressed in transfected cells; host or cells: HTLA cells
T2 sequence (P21554 whole entry): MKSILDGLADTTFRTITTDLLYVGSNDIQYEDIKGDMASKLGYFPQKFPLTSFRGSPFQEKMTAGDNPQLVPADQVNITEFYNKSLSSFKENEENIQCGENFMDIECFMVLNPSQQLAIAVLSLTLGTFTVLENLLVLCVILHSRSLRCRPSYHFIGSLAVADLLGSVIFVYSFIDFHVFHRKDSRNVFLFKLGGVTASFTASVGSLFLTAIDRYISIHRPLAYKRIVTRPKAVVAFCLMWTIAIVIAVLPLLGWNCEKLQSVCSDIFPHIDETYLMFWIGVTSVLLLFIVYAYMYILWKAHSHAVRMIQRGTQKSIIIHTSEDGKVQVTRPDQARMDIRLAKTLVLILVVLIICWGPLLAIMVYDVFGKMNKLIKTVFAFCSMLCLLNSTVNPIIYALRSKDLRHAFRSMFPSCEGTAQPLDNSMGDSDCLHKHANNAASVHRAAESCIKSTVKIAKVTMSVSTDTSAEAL
Protocol: as §1

rat CB1 receptor = biological target: T3, rat CB1 receptor (Rattus norvegicus, UniProt P20272); test: Radioligand binding assay with [3H]CP-55,940, rat brain membranes
T3 construct: membrane preparations from rat brain; from tissue; host or cells: rat brain membranes
T3 sequence (P20272 whole entry): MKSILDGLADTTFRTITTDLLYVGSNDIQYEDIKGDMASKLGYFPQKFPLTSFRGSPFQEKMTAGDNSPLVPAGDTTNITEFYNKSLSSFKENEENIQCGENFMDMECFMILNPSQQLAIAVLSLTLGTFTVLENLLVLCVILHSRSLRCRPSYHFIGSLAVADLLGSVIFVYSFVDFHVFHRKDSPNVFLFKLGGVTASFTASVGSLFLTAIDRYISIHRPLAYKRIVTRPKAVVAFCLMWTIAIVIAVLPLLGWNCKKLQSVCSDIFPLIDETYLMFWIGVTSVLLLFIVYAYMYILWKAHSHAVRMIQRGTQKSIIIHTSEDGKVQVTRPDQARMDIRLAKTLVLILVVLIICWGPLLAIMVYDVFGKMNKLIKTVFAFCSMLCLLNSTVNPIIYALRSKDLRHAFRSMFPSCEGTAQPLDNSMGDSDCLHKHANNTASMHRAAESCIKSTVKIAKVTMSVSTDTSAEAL
Protocol: as §2

[3] = test system: panel of more than 300 receptors; test: PRESTO-Tango GPCRome off-target panel; type: cell-based; conditions: for activities at off-targets in follow-up dose-response curves: follow-up dose-response of potential actives
Protocol: Screening of the compounds in the PRESTO-Tango GPCRome was performed as previously described with modifications. First, HTLA cells were plated in poly-L-lysine coated 384-well white plates in DMEM containing 1% dialyzed FBS for 6 hours. Next, the cells were transfected with 20 ng/well PRESTO-Tango receptor DNAs overnight. Then, the cells were added with 10 μM drugs without changing the medium and incubated for another 24 hours. The remaining steps of the PRESTO-Tango protocol were followed. The results were plotted as fold of basal against individual receptors in the GraphPad 8.0 software. For the receptors that had >3-fold of basal signaling activity, assays were repeated as a full dose-response assay and the results were plotted as a percentage of reference compounds.

[4] = human CB2, [3H]CP-55,940 radioligand, read-out: CB2 affinity Ki
[5] = rat CB1, [3H]CP-55,940, estimates from 3-point assays, read-out: CB1 affinity Ki (asterisk: estimate from 3-point assays)
[6] = rat CB1, [3H]CP-55,940 radioligand, read-out: CB1 affinity Ki
[7] = human CB2, [3H]CP-55,940, estimates from 3-point assays, read-out: CB2 affinity Ki (asterisk: estimate from 3-point assays)

T1 sequence (P34972 whole entry): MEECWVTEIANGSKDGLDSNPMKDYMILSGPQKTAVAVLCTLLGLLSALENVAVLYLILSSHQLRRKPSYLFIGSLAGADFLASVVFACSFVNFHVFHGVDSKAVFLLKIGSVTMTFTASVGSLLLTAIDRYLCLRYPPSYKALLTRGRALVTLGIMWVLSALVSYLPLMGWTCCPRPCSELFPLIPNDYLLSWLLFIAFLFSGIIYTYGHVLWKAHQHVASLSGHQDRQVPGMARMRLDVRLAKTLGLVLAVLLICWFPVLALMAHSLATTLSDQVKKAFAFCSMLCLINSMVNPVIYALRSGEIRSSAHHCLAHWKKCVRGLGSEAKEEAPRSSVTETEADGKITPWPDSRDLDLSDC

SMILES	Ki (human CB2 [1])	Ki (human CB2 [2]; [4])	Ki (human CB1)	Ki (rat CB1 receptor; [5])	Ki (rat CB1 receptor; [6])	activities at off-targets in follow-up dose-response curves [3]	selectivity against the GPCRome-Tango panel ([3]; panel of more than 300 receptors)	Ki (human CB2 [2]; [7])
Cc1ccc(CN(Cc2ccco2)S(=O)(=O)c2cnn(-c3ccccc3F)c2)s1 [BRI-13668]	4.78 µM	5.2 µM	–	–	–	–	–	–
N#Cc1ccc(C(=O)NCCN(Cc2ccccc2)C(=O)c2cc(C(F)(F)F)cs2)s1 [BRI-13633]	1.53 µM	–	0.23 µM	10 µM	–	–	–	–
O=S(=O)(NC1CC1)c1ccc(S(=O)(=O)NC(CCc2ccccc2)c2ccccn2)cc1 (stereo not drawn) [BRI-13661]	4.37 µM	4 µM	0.55 µM	19 µM	–	–	–	–
O=S(=O)(C1=Cc2cc(Cl)ccc2OC1)N(CCc1ccccn1)Cc1cccnc1 [BRI-13684]	7.28 µM	5.3 µM	1.16 µM	–	25.5 µM	–	–	–
CCCC(NS(=O)(=O)C1CC2(CC2)C1)C(=O)Nc1cccc(N2CCCC2)c1 (stereo not drawn) [BRI-13681]	1.86 µM	4.2 µM	0.42 µM	–	8.2 µM	–	–	–
CC1(C)NC(=O)N(CCCNC(=O)NCc2oc3ccc(Cl)cc3c2-c2ccccc2)C1=O [BRI-13559]	4.25 µM	12.2 µM	0.98 µM	–	–	–	–	–
C=CCC1(S(=O)(=O)NC(=O)c2ccc(N3CCCCC3)c(S(=O)(=O)N3CCCCCC3)c2)CC1 [BRI-13523]	1.59 µM	0.85 µM	1.82 µM	–	12 µM	only negligible activities	high selectivity	–
COc1ccc(-c2nccc(N3CCCC(Cc4ccc(N)nc4)C3)n2)cc1 (stereo not drawn) [BRI-13565]	3.77 µM	13.6 µM	–	4.5 µM	–	–	–	–
Cn1ccc(-n2cc(-c3csc(C(NC(=O)c4ccccc4)c4ccccc4)n3)nn2)n1 (stereo not drawn) [BRI-13580]	6.92 µM	–	5.8 µM	–	–	–	–	1.5 µM
CS(C)(=O)=NS(=O)(=O)c1cccc(C(=O)OCc2cccc3ccsc23)c1 [BRI-13650]	12.2 µM	–	3.22 µM	45 µM	–	–	–	–
Cc1ccc(NC(=O)Nc2ccn(C3CCCCCC3)n2)cc1S(=O)(=O)N1CCCCCC1 [BRI-13544]	7.78 µM	–	–	–	–	–	–	2.5 µM
Cc1ccc(NC(=O)Nc2ccn(C3CCOCC3)n2)cc1S(=O)(=O)N1CCCCCC1 [BRI-13505]	0.54 µM	–	0.28 µM	–	16.4 µM	–	–	1 µM
O=C1CCc2cc(OCCNC(=O)N(Cc3ccccc3)Cc3ccc(F)cc3)ccc2N1 [BRI-13619]	0.11 µM	–	0.05 µM	45 µM	–	–	–	–
Cc1cc(Cl)cn2cc(CNC(=O)C(=O)NC(COc3ccccc3)c3ccccc3)nc12 (stereo not drawn) [BRI-13520]	5.2 µM	12.8 µM	1.07 µM	–	11.6 µM	–	–	–
O=C(c1ccc(F)cc1)c1cc(Cl)ccc1NS(=O)(=O)c1cnn(C2CCCCC2)c1 [BRI-13665]	0.82 µM	6.7 µM	0.39 µM	> 7 µM	–	–	–	–
O=C(Nc1ccn(C2CCCCC2)n1)C(=O)NC(CCc1ccccc1)c1ccccc1 (stereo not drawn) [BRI-13610]	4.17 µM	0.28 µM	0.76 µM	–	0.62 µM	only negligible activities	–	–
O=C(NCC1(Cc2ccccc2)CC=CCC1)C(=O)Nc1c(F)ccc(Br)c1F (stereo not drawn) [BRI-13566]	4.04 µM	1.2 µM	2.05 µM	6.9 µM	–	–	–	–
O=C1Cc2cc(NC(=O)C(=O)NC(CCc3ccccc3)c3ccccc3)ccc2N1 (stereo not drawn) [BRI-13515]	3.81 µM	2.85 µM	0.94 µM	–	6.1 µM	–	–	–
Cc1ccc(NC(=O)N2CCC(O)(c3ccccc3F)C2)cc1S(=O)(=O)N1CCCCCC1 (stereo not drawn) [BRI-13599]	2.44 µM	10.4 µM	2.33 µM	26.5 µM	–	–	–	–
O=C(C1CC1)N1CCc2ccc(S(=O)(=O)NC(CCc3ccccc3)c3ccccn3)cc21 (stereo not drawn) [BRI-13663]	14.5 µM	14.3 µM	–	12.5 µM	–	–	–	–

From patent US20220293224A1, “MODULAR SYNTHON-BASED SCREENING APPROACH FOR USE IN DRUG DISCOVERY FOR DISEASES” (priority 2021, published 2022)
